The nature of experiment [1]: Binding affinity to 5'-GCGGCGGC-3' DNA hairpin assessed as change in fluorescence intensity at 1 uM after 45 mins by fluorescence quenching analysis relative to control.
A short description of experiment [2]: Binding affinity to 5'-GCCGCGCG-3' DNA hairpin assessed as change in fluorescence intensity at 1 uM after 45 mins by fluorescence quenching analysis relative to control.
Experiment [3] in a line: Binding affinity to 5'-CCGGCCGC-3' DNA hairpin assessed as change in fluorescence intensity at 1 uM after 45 mins by fluorescence quenching analysis relative to control.
A short description of experiment [4]: Binding affinity to 5'-GGCCGCCG-3' DNA hairpin assessed as change in fluorescence intensity at 1 uM after 45 mins by fluorescence quenching analysis relative to control.
A short description of experiment [5]: Binding affinity to 5'-GCCCCGCG-3' DNA hairpin assessed as change in fluorescence intensity at 1 uM after 45 mins by fluorescence quenching analysis relative to control.
Experiment [6] is described as follows: Binding affinity to 5'-CGCCGCGC-3' DNA hairpin assessed as change in fluorescence intensity at 1 uM after 45 mins by fluorescence quenching analysis relative to control.

Regarding `NCC1O[C@H](O[C@H]2[C@@H](O)[C@H](O[C@@H]3[C@@H](O)[C@H](N)C[C@H](N)[C@H]3O[C@H]3O[C@H](CN)[C@@H](O)[C@H](O)[C@H]3N)O[C@@H]2CSCCNC(=O)CCSCC(=O)Nc2ccc(-c3c4ccc(=O)cc-4oc4cc(O)ccc34)c(C(=O)O)c2)[C@H](N)[C@@H](O)[C@@H]1O` (stereo partly specified), the Activity came to 47.7% in experiment [1]; 58.2% in experiment [2]; 57.7% in experiment [3]; 40.7% in experiment [4]; 36.7% in experiment [5]; 46.6% in experiment [6].

(Values after ChEMBL document CHEMBL4000244, “Probing A-form DNA: A fluorescent aminosugar probe and dual recognition by anthraquinone-neomycin conjugates” (Bioorg Med Chem, 2017).)
